Holding throughout (assay type): functional
The test system of test [1] is Staphylococcus aureus. In words: Antibacterial activity against Staphylococcus aureus ATCC 6538P after 18 hrs by agar dilution assay. A general note: In agar dilution the substance is mixed into plates at graded concentrations.
The test system of test [2] is Staphylococcus epidermidis. In words: Antibacterial activity against Staphylococcus epidermidis after 18 hrs by agar dilution assay.
In test [3] the test system is Staphylococcus aureus. In words: Potency index, ratio of CPFX MIC to compound MIC for Staphylococcus aureus ATCC 6538P.
Test [4] relates to Staphylococcus aureus. Briefly: Potency index, ratio of NRFX MIC to compound MIC for Staphylococcus aureus ATCC 6538P.
In test [5] the test system is Staphylococcus aureus. In words: Potency index, ratio of enoxacin MIC to compound MIC for Staphylococcus aureus ATCC 6538P.
Test [6] concerns Staphylococcus epidermidis. In words: Potency index, ratio of CPFX MIC to compound MIC for Staphylococcus epidermidis.
Test [7] relates to Staphylococcus epidermidis. In words: Potency index, ratio of NRFX MIC to compound MIC for Staphylococcus epidermidis.
In test [8] the test system is Staphylococcus epidermidis. Briefly: Potency index, ratio of enoxacin MIC to compound MIC for Staphylococcus epidermidis.
Test [9] relates to Staphylococcus aureus. In words: Antibacterial activity against Staphylococcus aureus.
The subject of test [10] is Staphylococcus aureus. Briefly: Potency index, ratio of CPFX MIC to compound MIC for Staphylococcus aureus 1199.
The subject of test [11] is Staphylococcus aureus. Briefly: Potency index, ratio of CPFX MIC to compound MIC for Staphylococcus aureus 1199-3.
Test [12] concerns Staphylococcus aureus. Briefly: Potency index, ratio of CPFX MIC to compound MIC for Staphylococcus aureus 1199B.
Test [13] concerns Staphylococcus aureus. Briefly: Antibacterial activity against Staphylococcus aureus 1199.
Test [14] deals with Staphylococcus aureus. Briefly: Antibacterial activity against Staphylococcus aureus 1199-3.
Test [15] concerns Staphylococcus aureus. Briefly: Antibacterial activity against Staphylococcus aureus 1199B.
Test [16] has as its system Staphylococcus aureus. In words: Antibacterial activity against methicillin-resistant Staphylococcus aureus 494.
Test [17] concerns Staphylococcus aureus. Briefly: Antibacterial activity against vancomycin-resistant Staphylococcus aureus GISA 992.
The subject of test [18] is Staphylococcus aureus. Briefly: Selectivity ratio of MIC for Staphylococcus aureus 209P JC1 to MIC for methicillin-resistant Staphylococcus aureus.
Test [19] can be described thus: Selectivity ratio of MIC for Micrococcus luteus ATCC 9341 to MIC for methicillin-resistant Staphylococcus aureus.
Test [20] has as its system Staphylococcus aureus. In words: Potency index, ratio of NRFX MIC to compound MIC for Staphylococcus aureus.
For test [21], the system named is Staphylococcus aureus. Briefly: Potency index, ratio of GTFX MIC to compound MIC for Staphylococcus aureus.
Test [22] has as its system Staphylococcus aureus. Briefly: Potency index, ratio of LMFX MIC to compound MIC for Staphylococcus aureus.
Test [23] relates to Staphylococcus aureus. Briefly: Potency index, ratio of CPFX MIC to compound MIC for Staphylococcus aureus.

Converted amounts (≈) assume the structure as drawn. Where only a bound is given, the exact number is not on record here.

Turning to `Cn1c([N+](=O)[O-])cnc1-c1nnc(N2CCN(c3cc4c(cc3F)c(=O)c(C(=O)O)cn4C3CC3)CC2)s1`, the MIC (with Staphylococcus aureus [1]; in test [2]) was 0.008 µg/mL (≈ 0.0148 µM) in each case. Further, the Ratio (in the test with Staphylococcus aureus [3]; in the test with Staphylococcus aureus [4]; in the test with Staphylococcus aureus [5]; in test [6]; in test [7]; in [8]) was 32 - 128 in each case.

For `CCn1cc(C(=O)O)c(=O)c2cc(F)c(N3CCNC(C)C3)c(F)c21` (stereo unspecified) [LOMEFLOXACIN], in the test on Staphylococcus aureus [9], the MIC (in general, the least concentration at which growth counts as inhibited) fell in the range of 0.02 to 39.06 µg/mL.

With `CCn1cc(C(=O)O)c(=O)c2cc(F)c(N3CCNCC3)cc21` [NORFLOXACIN], the MIC in the test on Staphylococcus aureus [9] fell in the range of 0.02 to 39.06 µg/mL; against Staphylococcus aureus [1] it was 0.25 to 1 µg/mL (≈ 0.783 to 3.13 µM); in [2], 0.25 to 1 µg/mL (≈ 0.783 to 3.13 µM).

Take `CCn1cc(C(=O)O)c(=O)c2cnc(N3CCN(Cc4ccc(CN5CCN(c6cc7c(cc6F)c(=O)c(C(=O)O)cn7C6CC6)CC5)cc4)CC3)nc21`: the Ratio in the test with Staphylococcus aureus [10], in the test with Staphylococcus aureus [11] and in the test with Staphylococcus aureus [12] was >4 throughout.

Consider `O=C(O)c1cn(C2CC2)c2cc(N3CCNCC3)c(F)cc2c1=O` [CIPROFLOXACIN], for which the MIC fell in the range of 0.02 to 39.06 µg/mL in the test with Staphylococcus aureus [9]; 0.125 to 32 µg/mL (≈ 0.377 to 96.6 µM) against Staphylococcus aureus [13]; 0.125 to 32 µg/mL (≈ 0.377 to 96.6 µM) against Staphylococcus aureus [14]; 0.125 to 32 µg/mL (≈ 0.377 to 96.6 µM) in the test with Staphylococcus aureus [15]; 0.125 to 32 µg/mL (≈ 0.377 to 96.6 µM) against Staphylococcus aureus [16]; 0.125 to 32 µg/mL (≈ 0.377 to 96.6 µM) with Staphylococcus aureus [17]. For the same molecule, the MIC (in the test on Staphylococcus aureus [1]; in test [2]) was 0.25 to 1 µg/mL (≈ 0.754 to 3.02 µM) in each case.

`COc1c(N2CCNC(C)C2)c(F)cc2c(=O)c(C(=O)O)cn(C3CC3)c12` (stereo unspecified) [GATIFLOXACIN]: the MIC in the test with Staphylococcus aureus [9] fell in the range of 0.02 to 39.06 µg/mL.

For the molecule `C=c1sc2c(C(=O)O)c(=O)c3cc(F)c(-c4ccc(N)cc4)cc3n12`, the Ratio result with Staphylococcus aureus [18] was “>=16”; in [19], > 16.

In the case of `CCn1cc(C(=O)O)c(=O)c2cc(F)c(N3CCN(CN4C(=O)/C(=N\c5ncc(Cc6cc(OC)c(OC)c(OC)c6)c(N)n5)c5cc(F)ccc54)C(C)C3)c(F)c21` (stereo unspecified), the Ratio with Staphylococcus aureus [20], in the test on Staphylococcus aureus [21], with Staphylococcus aureus [22] and with Staphylococcus aureus [23] was 2 - 4111 throughout. Also, the MIC in the test with Staphylococcus aureus [9] (Staphylococcus aureus, read-out: MIC) worked out at 0.0095 µg/mL (≈ 0.0119 µM).

Source of the values: ChEMBL document CHEMBL4251589, “4-Quinolone derivatives and their activities against Gram positive pathogens” (2018).
